Test results published in PMC3921447, “Homologous and heterologous desensitization of guanylyl cyclase-B signaling in GH3 somatolactotropes” (Cell and Tissue Research, 2013).

Legend:
GC-B [1] = settings: NIH3T3, A10, 293 T cells; ref Abbey-Hosch et al. [2004], [2005]; cited from earlier work
Text: Heterologous desensitization of the natriuretic peptide receptors has been widely reported. Sphinogosine signaling is implicated in GC-B desensitization in NIH3T3 fibroblasts, A10 vascular smooth muscle cells and 293 T cells (Abbey-Hosch et al. [2004], [2005]). […] In the current study, we observed a modest effect of S1P pre-treatment of CNP-stimulated cGMP accumulation in GH3 ce ...

GC-B [2] = target: T1, GC-B (Rattus norvegicus, UniProt P16067); assay: Heterologous desensitization of CNP-stimulated (GC-B) cGMP accumulation in GH3 cells; type: cell-based
T1 construct: rapid homologous desensitization of endogenous GC-B receptors in GH3 cells; endogenous in cells; host or cells: GH3 rat somatolactotrope cells
T1 sequence (P16067 17-1047): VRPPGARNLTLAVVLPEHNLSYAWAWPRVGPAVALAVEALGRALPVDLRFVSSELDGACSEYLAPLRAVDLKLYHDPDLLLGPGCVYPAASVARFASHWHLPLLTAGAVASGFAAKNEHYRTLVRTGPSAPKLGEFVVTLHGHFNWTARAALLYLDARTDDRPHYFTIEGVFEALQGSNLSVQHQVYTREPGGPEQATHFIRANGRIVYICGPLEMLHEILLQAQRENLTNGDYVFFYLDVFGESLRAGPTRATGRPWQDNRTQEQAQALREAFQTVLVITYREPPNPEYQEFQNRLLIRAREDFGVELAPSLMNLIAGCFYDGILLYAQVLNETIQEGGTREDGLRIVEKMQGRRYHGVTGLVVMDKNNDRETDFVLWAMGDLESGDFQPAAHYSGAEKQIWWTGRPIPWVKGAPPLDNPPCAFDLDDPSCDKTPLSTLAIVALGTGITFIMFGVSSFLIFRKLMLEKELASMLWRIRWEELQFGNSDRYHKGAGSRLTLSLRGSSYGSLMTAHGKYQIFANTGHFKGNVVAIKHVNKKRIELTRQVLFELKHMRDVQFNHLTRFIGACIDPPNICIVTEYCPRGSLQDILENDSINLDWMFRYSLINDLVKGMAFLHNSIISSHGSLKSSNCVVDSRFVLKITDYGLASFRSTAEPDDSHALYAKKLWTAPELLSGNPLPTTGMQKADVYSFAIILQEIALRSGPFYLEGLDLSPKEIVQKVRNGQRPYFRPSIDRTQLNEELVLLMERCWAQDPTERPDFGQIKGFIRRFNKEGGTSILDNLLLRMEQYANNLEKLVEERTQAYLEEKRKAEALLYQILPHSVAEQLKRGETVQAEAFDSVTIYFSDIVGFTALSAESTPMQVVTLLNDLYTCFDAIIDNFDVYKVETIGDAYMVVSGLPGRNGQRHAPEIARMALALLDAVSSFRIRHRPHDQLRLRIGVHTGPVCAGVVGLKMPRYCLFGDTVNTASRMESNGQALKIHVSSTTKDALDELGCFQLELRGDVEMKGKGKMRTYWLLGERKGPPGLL
Text: (§1) Sphingolipids and calcium have been implicated in regulating natriuretic peptide signaling (Abbey-Hosch et al. [2004]; Abbey and Potter [2002]). Therefore, we examined the role of sphingosine-1-phosphate (S1P) on CNP-stimulated cGMP accumulation. […] However, S1P pre-treatment did cause desensitization of CNP-stimulated cGMP accumulation (by 30 ± 2.7 % compared with control, **P < 0.01).
(§2) Fig. 6 Evidence of sphingosine-mediated but not calcium-mediated, heterologous desensitization of GC-B signaling in GH3 somatolactotrope cells. GH3 cells were pre-treated with PSS containing either (a, b) 10 μM sphingosine-1-phosphate (S1P) or (c, d) 1 μM A23187 (calcium ionophore) for 30 min in the absence of IBMX, before a 15-min stimulation with either 100 nM CNP (a, c) or 100 nM ANP (b, d) in the presence of 1 mM IBMX.
(§3) Subsequent experiments examined the potential regulation of GC-B signaling by other peptide hormones. To determine whether the GC-B receptor underwent heterologous desensitization in GH3 cells, the effect of three known activators of PKC on CNP-stimulated cGMP accumulation was analyzed. […] To establish whether the TRH-induced heterologous desensitization of GC-B signaling was PKC-dependent, GH3 cells were pre-treated with either 0 or 1 μM GF109203X for 30 min to inhibit PKC activity. After this, cells were further pre-treated in the absence or presence of GF109203X and 0 or 100 nM TRH for a further 30 min, prior to stimulation with 0 or 100 nM CNP for a final 15-min stimulation in the presence of 1 mM IBMX.
(§4) Fig. 7 Protein kinase C (PKC)-dependent heterologous desensitization mediates the effects of thyrotrophin-releasing hormone (TRH) on CNP-stimulated GC-B signaling in GH3 somatolactotrope cells. a GH3 cells were pre-treated with PSS containing either 0 or 100 nM TRH, phorbol-12-myristate-13-acetate (PMA), or pituitary adenylate cyclase-activating polypeptide (PACAP) for 30 min in the absence of IBMX, before a 15-min stimulation with either 0 or 100 nM CNP in the presence of 1 mM IBMX.

GC-A = target: T2, GC-A (Rattus norvegicus, UniProt P18910); assay: Heterologous desensitization of ANP-stimulated (GC-A) cGMP accumulation in GH3 cells; type: cell-based
T2 construct: Evidence of homologous desensitization of endogenous GC-A- and GC-B-mediated signaling in GH3 cells; endogenous in cells; host or cells: GH3 rat somatolactotrope cells
T2 sequence (P18910 29-1057): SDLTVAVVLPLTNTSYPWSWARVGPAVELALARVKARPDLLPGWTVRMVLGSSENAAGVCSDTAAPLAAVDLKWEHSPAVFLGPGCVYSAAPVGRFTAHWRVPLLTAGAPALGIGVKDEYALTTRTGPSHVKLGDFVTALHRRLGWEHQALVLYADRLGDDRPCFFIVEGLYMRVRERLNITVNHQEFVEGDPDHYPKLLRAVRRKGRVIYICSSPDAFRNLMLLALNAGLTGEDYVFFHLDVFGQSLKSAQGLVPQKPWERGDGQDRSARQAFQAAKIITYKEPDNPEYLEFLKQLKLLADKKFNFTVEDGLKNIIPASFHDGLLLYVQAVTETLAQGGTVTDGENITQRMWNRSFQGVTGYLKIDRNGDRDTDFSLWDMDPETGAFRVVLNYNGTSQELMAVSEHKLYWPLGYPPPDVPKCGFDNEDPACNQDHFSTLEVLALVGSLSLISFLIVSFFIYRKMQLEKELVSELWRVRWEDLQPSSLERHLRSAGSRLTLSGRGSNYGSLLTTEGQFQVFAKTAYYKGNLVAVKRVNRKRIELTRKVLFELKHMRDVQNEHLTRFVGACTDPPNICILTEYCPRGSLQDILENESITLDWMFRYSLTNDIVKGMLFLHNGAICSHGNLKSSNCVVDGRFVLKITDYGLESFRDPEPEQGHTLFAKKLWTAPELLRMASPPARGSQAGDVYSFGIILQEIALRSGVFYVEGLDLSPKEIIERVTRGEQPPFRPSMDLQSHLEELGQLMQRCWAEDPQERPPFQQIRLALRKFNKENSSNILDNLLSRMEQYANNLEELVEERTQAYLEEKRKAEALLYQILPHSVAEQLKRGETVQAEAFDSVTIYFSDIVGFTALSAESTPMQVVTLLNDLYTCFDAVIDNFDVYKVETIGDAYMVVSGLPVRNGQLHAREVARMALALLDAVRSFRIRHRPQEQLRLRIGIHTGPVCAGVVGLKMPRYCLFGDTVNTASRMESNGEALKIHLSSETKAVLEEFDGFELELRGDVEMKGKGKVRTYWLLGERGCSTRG
Text: as §1
Fig. 6 Evidence of sphingosine-mediated but not calcium-mediated, heterologous desensitization of GC-B signaling in GH3 somatolactotrope cells. […]

GC-B [3] = target: T1, GC-B; assay: Effect of protein phosphatase inhibitors on rapid homologous desensitization of CNP-stimulated cGMP accumulation in GH3 cells; type: cell-based; settings: for rate of cGMP accumulation from 5 to 15 min (desensitization): 100 nM CNP, 1 mM IBMX, 30 min pre-treatment with 100 nM OA, 1 nM cypermethrin or 1 mM Na3VO4, control = CNP alone, n = 3; for reversal of the failure to maintain the initial rate of cGMP accumulation: 30 min pre-treatment with phosphatase inhibitor, then 100 nM CNP, discussion statement
Description: Fig. 2 Rapid homologous desensitization of CNP-dependent but not ANP-dependent cGMP accumulation in GH3 cells. Cells were treated with PSS containing either (a) 100 nM CNP or (b) 100 nM ANP for 0–15 min in the presence of 1 mM IBMX.
Similar short time-courses were performed, except that some cells were pre-treated with 100 nM okadaic acid (OA, a PP2A inhibitor), 1 nM cypermethrin (a PP2B inhibitor), or 1 mM sodium orthovanadate (Na3VO4, a protein tyrosine phosphatase inhibitor) for 30 min prior to CNP treatment (Fig. 2c).

GH3 cells = assay: Basal cGMP accumulation in GH3 cells after pre-treatment; type: cell-based, rat; settings: 30 min pre-treatment
Text: as §1, §2, §3, §4

[4] = 100 nM TRH, PMA or PACAP, ns, P > 0.05, Fig. 7a

C[C@H](CCC(=O)O)C[C@H](C)C[C@H](C)C(=O)/C=C(\O)[C@H](C)C[C@H](C)C/C=C/[C@@H](C)[C@@H](O)[C@@H](C)[C@@H](O)C[C@@H]1CC[C@@](C)([C@H]2CC[C@@](C)([C@@H](C)O)O2)O1 [ionomycin]
mechanism of GC-B desensitization (GC-B [1]): having a similar effect

CNc1ccc2oc(C[C@H]3O[C@@]4(CC[C@H]3C)O[C@H]([C@H](C)C(=O)c3ccc[nH]3)[C@H](C)C[C@H]4C)nc2c1C(=O)O [A23187]
effect on CNP-stimulated cGMP accumulation (GC-B [2]; 10 μM A23187 30 min pre-treatment, then 100 nM CNP 15 min, Fig. 6c): failed to alter either CNP- or ANP-stimulated cGMP accumulation
effect on ANP-stimulated cGMP accumulation (GC-A; 10 μM A23187 30 min pre-treatment, then 100 nM ANP 15 min, Fig. 6d): failed to alter either CNP- or ANP-stimulated cGMP accumulation

C=C1[C@@H](O)[C@@H]2O[C@]3(CC[C@H](/C=C/[C@@H](C)[C@@H]4CC(C)=C[C@@]5(O[C@H](C[C@@](C)(O)C(=O)O)CC[C@H]5O)O4)O3)CC[C@H]2O[C@@H]1[C@@H](O)C[C@H](C)[C@H]1O[C@@]2(CCCCO2)CC[C@H]1C [OA, okadaic acid]
rate of cGMP accumulation from 5 to 15 min (desensitization) (GC-B [3]): maintained a significant rate of cGMP accumulation from 5 to 15 min
reversal of the failure to maintain the initial rate of cGMP accumulation (GC-B [3]): partially reversed the failure to maintain the initial rate of cGMP accumulation

thyrotrophin-releasing hormone [TRH]
CNP-stimulated cGMP, % of control response to CNP (reduced to) (GC-B [2]; 100 nM TRH 30 min pre-treatment without GF109203X, then 100 nM CNP 15 min with 1 mM IBMX, P < 0.001, n = 3, Fig. 7b): 20.1 ± 5.4%
reduction in CNP-stimulated cGMP accumulation compared with control (GC-B [2]; 100 nM, 30 min pre-treatment without IBMX, then 100 nM CNP 15 min with 1 mM IBMX, ***P < 0.001, n = 3, Fig. 7a): 44.6 ± 2.5%
basal cGMP accumulation (GH3 cells; [4]): failed to alter basal cGMP accumulation

[Na+].[Na+].[Na+].[O]=[V]([O-])([O-])[O-] [Na3VO4, sodium orthovanadate]
rate of cGMP accumulation from 5 to 15 min (desensitization) (GC-B [3]): failed to maintain a significant rate of cGMP accumulation
reversal of the failure to maintain the initial rate of cGMP accumulation (GC-B [3]): failed to reverse the apparent homologous desensitization

pituitary adenylate cyclase-activating polypeptide [PACAP]
effect on CNP-stimulated cGMP accumulation (GC-B [2]; 100 nM PACAP 30 min pre-treatment, then 100 nM CNP 15 min with 1 mM IBMX, ns, P > 0.05, Fig. 7a): failed to alter CNP-stimulated cGMP accumulation
basal cGMP accumulation (GH3 cells; [4]): failed to alter basal cGMP accumulation

CC1(C)C(C=C(Cl)Cl)C1C(=O)OC(C#N)c1cccc(Oc2ccccc2)c1 (stereo not drawn) [cypermethrin]
rate of cGMP accumulation from 5 to 15 min (desensitization) (GC-B [3]): failed to maintain a significant rate of cGMP accumulation
reversal of the failure to maintain the initial rate of cGMP accumulation (GC-B [3]): failed to reverse the apparent homologous desensitization

CCCCCCCCCCCCC/C=C/[C@@H](O)[C@@H](N)COP(=O)(O)O [S1P, sphingosine-1-phosphate]
desensitization (reduction) of CNP-stimulated cGMP accumulation vs control (GC-B [2]; 10 μM S1P 30 min pre-treatment without IBMX, then 100 nM CNP 15 min with 1 mM IBMX, **P < 0.01, n = 3, Fig. 6a): 30 ± 2.7%
mechanism of GC-B desensitization (GC-B [1]): does not require PKC activation but is reliant on the elevation of intracellular Ca^2+ levels
basal cGMP accumulation (GH3 cells; 10 μM S1P, Fig. 6a): failed to significantly alter basal cGMP accumulation
desensitization of ANP-stimulated cGMP accumulation (GC-A; 10 μM S1P 30 min pre-treatment, then 100 nM ANP 15 min with 1 mM IBMX, ns, P > 0.05, Fig. 6b): did not result in desensitization of ANP-stimulated cGMP accumulation
